Source: US5885961A, “Methods of using epithelins to modulate cell proliferation” (Bristol-Myers Squibb Company, priority 1995, dated 1999)
Entries after “also recorded” stand apart in the source; their conditions may differ.

Tests used:
[1] = system: NRK-SA6 cells; settings: in the presence of TGFβ; Roberts et al., 1981; cited from earlier work
[2] = system: Balb/MK cells; test: Murine keratinocyte growth assay (cell count); type: cell-based; settings: for effect on growth of Balb/MK cells (rodent keratinocytes): FIG. 16A
Protocol: FIG. 16(A-B). (FIG. 16A) Effect of epithelin 1 and epidermal growth factor (EGF) on the growth of Balb/MK cells. Assays were performed as described in Section 6.2., infra. .circle-solid., epithelin 1; o, EGF (FIG. 16B) Effect of various concentrations of epithelin 2 on the epithelin 1 (20 ng/ml) induced growth of murine keratinocytes.
Balb/MK cells were plated at 1×10^4 cells per well in 1 ml of low calcium medium (Weissman and Aaronson, 1983, Cell 32:599-606; Carpenter and Zendegut, 1985, Anal. Biochem. 153:279-282) in 24-well Costar plates and incubated at 37° C. for 4-6 hours. Then media were removed and replaced with 1 ml of medium containing various concentrations of the test compound in triplicate. The control wells received only medium without any test material. The plates were incubated at 37° C. for 4 days, then medium was removed, wells were rinsed two times with 1 ml of phosphate-buffered saline, and the cells were detached with trypsin-EDTA and counted.

[3] = system: A431 human epidermoid carcinoma cells; test: Cell growth inhibitory activity (GIA), 125I-deoxyuridine incorporation into DNA; type: cell-based
Protocol: The cell growth inhibitory activity (GIA) assays were performed in flat-bottom 96 well plates (Falcon 3072). Human epidermoid carcinoma of vulva cells (A431) were used as test cells for GIA. 3.5×10^3 cells in 50 μl of test medium (DMEM supplemented with 5% heat inactivated fetal bovine serum (FBS), penicillin/streptomycin (PS) and glutamine) were placed in all wells except peripheral wells. The peripheral wells received 50 μl PBS. Three hours later, 50 μl of test sample in test medium was added to each well, while control wells received only 50 μl of test medium. Three wells were used for each concentration of test sample. Plates were incubated at 37° C. for 2-3 days. Then, 100 μl of a solution of […] (^125 I-IUdR, 4Ci/mg-0.5 mCi/ml, 2 μl/ml in test medium) was added to each well and plates were incubated at 37° C. After 4-6 hours, the medium was aspirated from the wells, which were then washed once with 200 μl PBS. Then, 200 μl methanol was added to each well, plates were incubated for 10 minutes at room temperature, and the methanol was removed by aspiration. 200 μl of 1M sodium hydroxide was added to each well, the plates were incubated for 30 minutes at 37° C. Sodium hydroxide was removed with titertek plugs (Flow Labs). The plugs were transferred into 12×75 mm plastic tubes and counted in a gamma counter to quantify ^125 I-IUdR incorporation.

[4] = system: human fibroblasts and several other human tumor cells; test: 125I-deoxyuridine incorporation into DNA, human fibroblasts and other human tumor cells; type: cell-based; settings: maximum dose tested: 20 ng/ml epithelin 1, 270 ng/ml epithelin 2
[5] = system: mink lung CCL 64 cells; test: 125I-deoxyuridine incorporation into DNA, CCL 64; type: cell-based
[6] = system: human colon carcinoma cell line HCT 116; test: 125I-deoxyuridine incorporation into DNA, HCT 116; type: cell-based; settings: maximum dose tested: 20 ng/ml epithelin 1, 270 ng/ml epithelin 2
[7] = system: NRK cells; test: Mitogenic activity on NRK cells in monolayer; type: cell-based, rat
[8] = system: NRK-SA6 cells; test: Soft agar colony assay in the presence of TGFβ; type: cell-based, rat
Protocol: FIG. 17. Effect of epithelin 1 and 2 on NRK-SA6 cell colony formation in soft agar in the presence of TFGβ (1 ng/ml). The colony formation assay used is described in Section 6.2.3, infra. Solid bars, epithelin 1; stippled bar, epidermal growth factor; open bar, epithelin 2; hatched bar, 20 ng/ml epithelin 1 plus 500 ng/ml epithelin 2.
A 0.38 ml base layer of 0.5% agar (Agar Noble; Difco Laboratories, Detroit, Mich.) in DMEM containing 10% heat inactivated FBS was added to 24 well Costar tissue culture plates. 0.38 ml of 0.3% agar containing the same medium-FBS mixture, 6-12×10^3 test cells, and the test proteins at various concentrations were overlaid on the basal layer of agar. The plates were incubated at 37° C. in a humidified atmosphere of 5% CO2 in air. Colonies were enumerated unfixed and unstained, and the number of colonies was scored between days 7 and 10. Colonies were defined as a cluster of at least eight cells.

[9] = system: Balb/MK cells; test: Growth stimulatory activity (GSA), 125I-deoxyuridine incorporation into DNA of murine keratinocytes; type: cell-based
Protocol: FIG. 15(A-B). (FIG. 15A) Effect of epithelin 1 and epithelin 2 on the stimulation of ^125 I-deoxyuridine incorporation into DNA of the murine keratinocyte cell line Balb/MK. 2,000-4,000 cells were plated per well in 96 well plates in low-calcium medium containing 5% dialyzed FBS. Then GSA assays were performed as described in Section 6.2., infra. .circle-solid., epithelin 1; o, epithelin 2. (FIG. 15B) Effect of various concentrations of epithelin 2 on epithelin 1 (20 ng/ml) elicited incorporation of ^125 I-deoxyuridine into DNA of Balb/MK cells.
Balb/MK cells were also used as indicator cells in 96 well plates to assess the growth inhibitory activity (GIA) or growth stimulatory activity (GSA) of a test material using ^125 I-deoxyuridine incorporation into DNA as described in the previous section.

[10] = system: monkey kidney COS1 cells; test: 125I-deoxyuridine incorporation into DNA, COS1; type: cell-based
[11] = biological target: EGF receptors (Homo sapiens, UniProt P00533); test: Binding of 125I-EGF to its receptors
[12] = Resistance of bioactivity to chemical, heat and enzyme treatment; type: physicochemical
Protocol: Epithelin 1 and epithelin 2 are resistant to treatment with 1M acetic acid, 1M ammonium hydroxide, 6M urea, 0.01M sodium metaperiodate, to heating at 56° C. for 30 minutes, and to treatment with various glycosidases or lipases. However, epithelin activity was sensitive to reduction, to reduction and 4-vinylpyridine treatment, and to digestion with proteinases such as trypsin, endoproteinase Lys-C, and endoproteinase Glu-C (V8).

IC50 ([3]; A431 cells, read-out: concentration for 50% inhibition of 125I-deoxyuridine incorporation) [µM] | Substance | anchorage-independent growth of rat kidney cells NRK-SA6 [1] | effect on growth of Balb/MK cells (rodent keratinocytes) [2] | 50% inhibition of DNA synthesis (125I-deoxyuridine incorporation) ([3]; A431 cells, purified protein, FIG. 14) [ng/well] | Specific Activity ([3]; final purification step Anal TSK-250 (Table III)) | specific activity of purified protein (GIA) ([3]; one unit = amount inhibiting 125I-deoxyuridine incorporation into A431 cells by 50%) | effect on human fibroblasts and several other human tumor cells [4] | effect on 125I-deoxyuridine incorporation into DNA [5] | effect on growth of HCT 116 cells [6] | IC50 ([2]; epithelin 1 20 ng/ml, FIG. 16B, read-out: 50% inhibition of epithelin 1-induced growth of Balb/MK cells) [µM] | mitogenic activity on NRK cells in monolayer [7] | inhibition of epithelin 1-induced colony formation in soft agar ([8]; epithelin 2 at ~85 nM, epithelin 1 20 ng/ml) | anchorage-independent growth (colony formation in soft agar) of NRK cells ([8]; in the presence of TGFβ 1 ng/ml, FIG. 17) | IC50 ([9]; Balb/MK cells, epithelin 1 20 ng/ml, FIG. 15B, read-out: 50% inhibition of epithelin 1 elicited 125I-deoxyuridine incorporation) [µM] | effect on 125I-deoxyuridine incorporation into DNA of Balb/MK cells ([9]; FIG. 15A) | effect on 125I-deoxyuridine incorporation into DNA [10] | effect on binding of 125I-EGF to its receptors [11] | resistance to 1M acetic acid, 1M ammonium hydroxide, 6M urea, 0.01M sodium metaperiodate, heating at 56° C. for 30 minutes, glycosidases or lipases [12] | sensitivity of activity to reduction, reduction and 4-vinylpyridine treatment, and proteinases (trypsin, Lys-C, Glu-C) [12]
– | EGF: epidermal growth factor, comparison growth factor (NSDSECPLSHDGYCLHDGVCMYIEALDKYACNCVVGYIGERCQYRDLKWWELR; UniProt P01133 971-1023, looked up) [reference compound] | induces anchorage-independent growth | did not proliferate in the absence of EGF or epithelin 1 | – | – | – | – | – | – | – | – | – | – | – | – | – | – | – | –
~0.75 | epithelin 2: single chain polypeptide of 57 amino acid residues, 12 cysteines, purified from rat kidney; antagonizes epithelin 1 growth stimulation (VVCPDAKTQCPDDSTCCELPTGKYGCCPMPNAICCSDHLHCCPQDTVCDLIQSKCIS) | – | did not exhibit any significant effect; also recorded: no effect | 450 | 3,810 Units/mg | 3.8×10^3 units/mg protein | Neither protein exhibited any significant effect | significantly inhibited | did not show any effect | ~0.007 | not | about 50% | did not; also recorded: no effect | ~0.021 | did not show any significant effect | significantly inhibited | Neither epithelin 1 nor epithelin 2 significantly affected the binding | stable; also recorded: resistant | sensitive
– | TGFα: transforming growth factor-α | induces anchorage-independent growth | – | – | – | – | – | – | – | – | – | – | – | – | – | – | – | – | –
